Measured values from ChEMBL document CHEMBL5150017, “Mechanism of Action and Structure-Activity Relationship of α-Conotoxin Mr1.1 at the Human α9α10 Nicotinic Acetylcholine Receptor” (J Med Chem, 2022).
Activity calls are given as the source filed them. The calls are words filed in the database; no cut-off is given here. Positions of bridges follow the written chain, without caps; N, C: chain ends. Residues, ends and D or L forms follow the SMILES beside them.

Legend:
[1] = molecular target: T1, Neuronal acetylcholine receptor; alpha9/alpha10 (Homo sapiens) (UniProt Q9UGM1+Q9GZZ6); assay: Antagonist activity at human alpha9alpha10 nAChR expressed in Xenopus laevis oocytes assessed as inhibition of ACh-induced current amplitude at -80 mV holding potential at 10 uM by two-electrode voltage clamp method; type: cell-based; settings: Oocyte
[2] = molecular target: T1, Neuronal acetylcholine receptor; alpha9/alpha10 (Homo sapiens); assay: Antagonist activity at human alpha9alpha10 nAChR expressed in Xenopus laevis oocytes assessed as inhibition of ACh-induced current amplitude at -80 mV holding potential at 1 uM by two-electrode voltage clamp method; type: cell-based; settings: Oocyte

SMILES: CC[C@H](C)[C@@H]1NC(=O)[C@H](CC(=O)O)NC(=O)[C@@H]2CCCN2C(=O)[C@H](CC(N)=O)NC(=O)[C@H](CC(N)=O)NC(=O)[C@H](C(C)C)NC(=O)[C@H](CO)NC(=O)[C@@H]2CSSC[C@H](NC(=O)CN)C(=O)N[C@@H](CSSC[C@@H](C(N)=O)NC1=O)C(=O)N[C@@H](C)C(=O)N[C@@H](Cc1cnc[nH]1)C(=O)N1CCC[C@H]1C(=O)N[C@@H](C)C(=O)N2 (H-GCCAHPACSVNNPDIC-NH2; disulfide 2-8, 3-16)
- inhibition ([1]; filed as antagonist): Active

SMILES: CC[C@H](C)[C@@H]1NC(=O)[C@H](CC(=O)O)NC(=O)[C@@H]2CCCN2C(=O)[C@H](CC(N)=O)NC(=O)[C@H](CC(N)=O)NC(=O)[C@H](C(C)C)NC(=O)[C@H](CO)NC(=O)[C@@H]2CSSC[C@H](NC(=O)CN)C(=O)N[C@@H](CSSC[C@@H](C(N)=O)NC1=O)C(=O)N[C@@H](CO)C(=O)N[C@@H](C)C(=O)N1CCC[C@H]1C(=O)N[C@@H](C)C(=O)N2 (H-GCCSAPACSVNNPDIC-NH2; disulfide 2-8, 3-16)
- inhibition [1]: 20%

SMILES: CC[C@H](C)[C@@H]1NC(=O)[C@H](CC(=O)O)NC(=O)[C@@H]2CCCN2C(=O)[C@H](CC(N)=O)NC(=O)[C@H](CC(N)=O)NC(=O)[C@H](C(C)C)NC(=O)[C@H](C)NC(=O)[C@@H]2CSSC[C@H](NC(=O)CN)C(=O)N[C@@H](CSSC[C@@H](C(N)=O)NC1=O)C(=O)N[C@@H](CO)C(=O)N[C@@H](Cc1cnc[nH]1)C(=O)N1CCC[C@H]1C(=O)N[C@@H](C)C(=O)N2 (H-GCCSHPACAVNNPDIC-NH2; disulfide 2-8, 3-16)
- inhibition ([1]; filed as antagonist): Active

SMILES: CC[C@H](C)[C@@H]1NC(=O)[C@H](CC(=O)O)NC(=O)[C@@H]2CCCN2C(=O)[C@H](Cc2cnc[nH]2)NC(=O)[C@H](CC(N)=O)NC(=O)[C@H](C(C)C)NC(=O)[C@H](CO)NC(=O)[C@@H]2CSSC[C@H](NC(=O)CN)C(=O)N[C@@H](CSSC[C@@H](C(N)=O)NC1=O)C(=O)N[C@@H](CO)C(=O)N[C@@H](Cc1cnc[nH]1)C(=O)N1CCC[C@H]1C(=O)N[C@@H](C)C(=O)N2 (H-GCCSHPACSVNHPDIC-NH2; disulfide 2-8, 3-16)
- inhibition [2]: 20%
- inhibition ([2]; filed as antagonist): 40%
